The values below come from patent US20130216585A1, “COMPOSITION AND METHODS FOR QUENCHING FREE RADICALS AND MODULATING INFLAMMATION” (FLAVITPURE, INC., priority 2012, published 2013).

For one data set, the system named is bacterial mutagenicity. The conditions noted are these: bacterial mutagenicity tests, cited from earlier work.
Data set [1] concerns 8-hydroxy-2′-deoxyguanosine. The conditions noted are these: Fenton reaction catalyzed by copper; cited from earlier work.
Data set [2] is described as follows: ORAChydro (Oxygen Radical Absorbance Capacity) assay. Type of data set: physicochemical. The source says:
(§1) Dihydroquercetin is a:far more powerful antioxidant than vitamins A, C and E, as indicated by its comparative USDA ranking of the Oxygen Radical Absorbance Capacity (ORAC) and supported by other additional studies such as Cell-based Antioxidant Protection (CAP-e) assay against peroxyl radical, which is used to test whether natural products contain antioxidants capable of entering into and protecting live cells from oxidative damage.
(§2) The majority of HAT-based assays apply a competitive reaction scheme, in which antioxidant and substrate compete for thermally generated peroxyl radicals through the decomposition of azo compounds. ORAC and CAP-e can also be applied as an assays for the inhibition of induced low-density lipoprotein oxidation and other oxygen radical absorbances. […]
(§3) Among all the HAT-based assays, ORAC and CAP-e adopted an AUC (area under curve) technique to quantify antioxidant capacity. […]
(§4) Therefore, the ORAC and CAP-e assays has been broadly applied in academics and the food and supplement industry as the method of choice to quantify antioxidant capacity. […] The ORAChydro value of our dihydroquercetin has been measured at is 3,890 micromole of Trolox equivalent per […] capsule or 28,000 micromole Trolox equivalent per gram. The CAP-e value of our dihydroquercetin has been measured at is 9.9 CAP-e units per gram.

In data set [3] the test system is human lung embryonic fibroblasts (TIG-1). The following applies: TIG-1 cells; cited from earlier work.
The test system of another data set is peroxyl radical. Kind of data set: Cell-based Antioxidant Protection (CAP-e) assay. The conditions noted are these: per gram.
Source text: as §1, §2, §3, §4

For data set [4], the system named is umbilical vein endothelial (HUVE) cells. The conditions noted are these: cited from earlier work.
For data set [5] the following is noted: clinical feedback, usually females; cited from earlier work.

Take `O=c1c(O)c(-c2ccc(O)c(O)c2)oc2cc(O)cc(O)c12` [quercetin, reference compound]: in the data set on bacterial mutagenicity, the minimum mutagenic dose is 4 nml.
With catechin [reference compound], the pro-oxidant activity result in data set [1] is reported as “did not present pro-oxidant activity”.
As for `O=C1c2c(O)cc(O)cc2O[C@H](c2ccc(O)c(O)c2)[C@H]1O` [Dihydroquercetin], the ORAChydro value in data set [2] (per 412.3 mg capsule) is given as 3,890 micromole of Trolox equivalent per 412.3 mg capsule; in data set [2] (per gram), 28,000 micromole Trolox equivalent per gram. Moreover, the “times less mutagenic than quercetin” value with bacterial mutagenicity (relative to quercetin) is 400 times. The minimum mutagenic dose in the data set with bacterial mutagenicity is recorded as 1626 nmol. In addition, the figures for the 50% lethal concentration in data set [3] and in data set [4] were more than 300 µmol and more than 200 µmol, respectively. In addition, the pro-oxidant activity entry in data set [1] was “did not present pro-oxidant activity”. The CAP-e value in the data set on peroxyl radical turned out to be 9.9 CAP-e units per gram.
In the case of Larch Arabinogalactan, in data set [5], the “occasional reaction of bloating and flatulence, share of individuals” value is given as “less than three percent”.
